Source: ChEMBL document CHEMBL1142653, “In silico prediction of membrane permeability from calculated molecular parameters” (J Med Chem, 2005)

Experiments:
[1] = Apparent permeability of the compound was determined in MDCK (madin darby canine kidney) strain I; Activity = Papp 10e-6; format: ADME, Canis lupus familiaris; conditions: dog
[2] = Apparent permeability of the compound was determined inCaco-2 (human colon carcinoma) cells; Activity = Papp 10E-6; format: ADME; conditions: Caco-2

| SMILES | Papp [1] [×10⁻⁶ cm/s] | Papp [2] [×10⁻⁶ cm/s] |
| --- | --- | --- |
| O=C(N[C@H](CO)[C@H](O)c1ccc([N+](=O)[O-])cc1)C(Cl)Cl [CHLORAMPHENICOL] | 3.15 |  |
| COCCc1ccc(OCC(O)CNC(C)C)cc1 (stereo unspecified) [METOPROLOL] | 37.8 | 18.2 |
| CC(C)NCC(O)COc1cccc2ccccc12 (stereo unspecified) [PROPRANOLOL] | 34.4 | 12.6 |
| CN/C(=C\[N+](=O)[O-])NCCSCc1ccc(CN(C)C)o1 [RANITIDINE] | 0.27 |  |
